Values quoted from earlier work as cited in patent publication US9617279B1, “Imidazooxadiazole compounds” (BRISTOL-MYERS SQUIBB COMPANY, priority 2014, dated 2017).

Key:
PAR1 = molecular target: T1, PAR1 (Homo sapiens, UniProt P25116); settings: ACS patients, phase III
T1 sequence (P25116 22-425): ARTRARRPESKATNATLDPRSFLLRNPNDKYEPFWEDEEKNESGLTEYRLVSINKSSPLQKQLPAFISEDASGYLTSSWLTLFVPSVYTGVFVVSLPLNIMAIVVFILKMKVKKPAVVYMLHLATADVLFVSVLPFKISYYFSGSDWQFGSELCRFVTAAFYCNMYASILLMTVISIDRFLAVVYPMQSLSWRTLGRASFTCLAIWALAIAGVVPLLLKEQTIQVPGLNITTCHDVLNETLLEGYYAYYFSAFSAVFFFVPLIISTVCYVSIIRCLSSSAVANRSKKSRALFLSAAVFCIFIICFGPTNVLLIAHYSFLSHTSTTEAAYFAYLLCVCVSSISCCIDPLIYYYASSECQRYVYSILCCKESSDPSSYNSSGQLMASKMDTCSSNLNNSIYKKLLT

[1] = molecular target: T2, protease-activated receptor type 4 (PAR4) (Homo sapiens, UniProt Q96RI0); settings: abstract of Lee et al. 2001
T2 sequence (Q96RI0 18-385): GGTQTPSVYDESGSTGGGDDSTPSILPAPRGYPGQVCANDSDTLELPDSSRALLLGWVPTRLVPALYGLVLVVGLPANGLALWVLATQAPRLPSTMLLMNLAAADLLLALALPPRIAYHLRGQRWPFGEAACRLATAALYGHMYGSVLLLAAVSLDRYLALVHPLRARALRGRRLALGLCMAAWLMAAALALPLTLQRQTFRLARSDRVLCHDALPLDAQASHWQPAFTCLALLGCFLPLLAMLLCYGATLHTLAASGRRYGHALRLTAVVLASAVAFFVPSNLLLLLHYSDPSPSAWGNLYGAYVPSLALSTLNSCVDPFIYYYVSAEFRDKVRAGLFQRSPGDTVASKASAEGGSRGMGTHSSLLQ

risk of major bleeding (PAR1) | Compound | cardiovascular events (PAR1) | inhibition of PAR4-dependent platelet activation [1]
significantly increased | CCOC(=O)N[C@@H]1CC[C@@H]2[C@@H](C1)C[C@H]1C(=O)O[C@H](C)[C@H]1[C@H]2/C=C/c1ccc(-c2cccc(F)c2)cn1 [vorapaxar] | did not significantly reduce | 
 | CCOC(=O)c1ccc(-c2nn(Cc3ccccc3)c3ccccc23)cc1 [ethyl 4-(1-benzyl-1H-indazol-3-yl)benzoate] |  | selective and potent inhibitor
